# Like-named read-outs stand apart in the source and are kept apart here.
# Columns and labels:
# HSV-1 (F strain) = details: for % plaque inhibition: drug added after inoculation; for appearance of cell layer / % plaque inhibition A: Exp. 1D; for appearance of cell layer: after virus adsorption, thin = attached but monolayer not confluent; for % plaque inhibition A: drug added after virus adsorption
# HSV-1 (McKrae strain) [1] = details: Virus and Drug (20 mg/ml)
# HSV-1 (McKrae strain) [2] = details: 20 mg/ml
# Protocol: In experiment 1K, cultures were infected with the McKrae strain of HSV-1 at a high multiplicity of infection. […] At designated times, the cultures were harvested. The supernatant fluid and the cells were kept separate to assay for viruses released in the supernatant fluid and also that present in the cells. Both supernatant fluid and the cells were frozen immediately at -85° C. These samples were then assayed for infectious particles on susceptible cells.
# [3] = system: RK-13, Vero cells, and WISH cells; details: cultures with vs without TEAC
# Protocol: To determine the toxicity level of the drug, all three cell lines--RK-13, Vero cells, and WISH cells--were used. In the toxicity experiments, the effect of the drug on the uninfected cell for a range of periods of time was determined. Accordingly, cultures were incubated with and without the drug. The time of exposure was from one to seven hours. A comparison was then made between the drug treated cultures and the control cultures. After each period of incubation, the cells were washed and fresh media was added to the cells. The cell viability was then determined by dividing these cultures and having them grow into new cell cultures.
# [4] = system: Flow 1000 cells (foreskin cells); details: 25 mg/ml, 48 hours, 37° C.
# Protocol: (§1) Healthy confluent monolayer cell cultures were overlaid with 1 ml of the drug and incubated for 48 hours at 37° C. and then stained. Cell cultures with maintenance media were used as controls.
# RK-13 cells = details: 25 mg/ml, 48 hours, 37° C.
# Protocol: as §1
# Vero cells = details: 25 mg/ml, 48 hours, 37° C.
# Protocol: as §1
# HSV-1 = details: 20 mg/ml TEAC, virus control 1398
# [5] = system: herpes simplex virus (HSV types 1 and 2)
smiles,measurement,setting,value
"CC[N+](CC)(CC)CC.[Cl-] [TEAC, tetraethylammonium chloride]",antiviral activity,"HSV-1 (F strain); Exp. 1C, all dilutions tested",Antiviral activity was seen in all dilutions tested
same,% plaque inhibition,"HSV-1 (F strain); Exp. 1C, 0.62 mg/culture",30%
same,% plaque inhibition,"HSV-1 (F strain); Exp. 1C, 1.25 mg/culture",39%
same,% plaque inhibition,"HSV-1 (F strain); Exp. 1C, 2.50 mg/culture",46%
same,% plaque inhibition,"HSV-1 (F strain); Exp. 1C, 5.00 mg/culture",45%
same,% plaque inhibition,"HSV-1 (F strain); Exp. 1C, 10.00 mg/culture",56%
same,appearance of cell layer,HSV-1 (F strain); 25 mg/culture,thin
same,appearance of cell layer,HSV-1 (F strain); 50 mg/culture,thin
same,% plaque inhibition A,HSV-1 (F strain); 6.2 mg/culture,20%
same,% plaque inhibition A,HSV-1 (F strain); 12.5 mg/culture,62%
same,% plaque inhibition A,"HSV-1 (F strain); 25.0 mg/culture, cell layer thin",100%
same,% plaque inhibition A,"HSV-1 (F strain); 50.0 mg/culture, cell layer thin",100%
same,"cells exhibiting CPE, area of infection per field","HSV-1 (McKrae strain) [1]; 6 hours P.I., virus control 1/4",1/6
same,"cells exhibiting CPE, area of infection per field","HSV-1 (McKrae strain) [1]; 30 hours P.I., virus control 1/2",scattered
same,"virus yield, supernatant","HSV-1 (McKrae strain) [2]; 6 hours P.I., dilution 10^-1, control 3",0 PFU/m
same,"virus yield, cell","HSV-1 (McKrae strain) [2]; 6 hours P.I., dilution 10^-1, control 7",2 PFU/m
same,"virus yield, supernatant","HSV-1 (McKrae strain) [2]; 6 hours P.I., dilution 10^-2, control 1",0 PFU/m
same,"virus yield, cell","HSV-1 (McKrae strain) [2]; 6 hours P.I., dilution 10^-2, control 7",5 PFU/m
same,"virus yield, supernatant","HSV-1 (McKrae strain) [2]; 6 hours P.I., dilution 10^-3, control 0",0 PFU/m
same,"virus yield, cell","HSV-1 (McKrae strain) [2]; 6 hours P.I., undiluted (Und.), control 16",12 PFU/m
same,"virus yield, cell","HSV-1 (McKrae strain) [2]; 10 hours P.I., dilution 10^-1, control 12",3 PFU/m
same,"virus yield, supernatant","HSV-1 (McKrae strain) [2]; 10 hours P.I., dilution 10^-1, control 22",0 PFU/m
same,"virus yield, cell","HSV-1 (McKrae strain) [2]; 10 hours P.I., dilution 10^-2, control 2",0 PFU/m
same,"virus yield, supernatant","HSV-1 (McKrae strain) [2]; 10 hours P.I., dilution 10^-2, control 7",0 PFU/m
same,"virus yield, supernatant","HSV-1 (McKrae strain) [2]; 10 hours P.I., dilution 10^-3, control 0",0 PFU/m
same,"virus yield, cell","HSV-1 (McKrae strain) [2]; 10 hours P.I., undiluted (Und.), control 48",13 PFU/m
same,"virus yield, supernatant","HSV-1 (McKrae strain) [2]; 20 hours P.I., dilution 10^-1, control 91",0 PFU/m
same,"virus yield, cell","HSV-1 (McKrae strain) [2]; 20 hours P.I., dilution 10^-1, control W.O. (wiped out)",5 PFU/m
same,"virus yield, supernatant","HSV-1 (McKrae strain) [2]; 20 hours P.I., dilution 10^-2, control 10",0 PFU/m
same,"virus yield, cell","HSV-1 (McKrae strain) [2]; 20 hours P.I., dilution 10^-2, control W.O. (wiped out)",0 PFU/m
same,"virus yield, supernatant","HSV-1 (McKrae strain) [2]; 20 hours P.I., dilution 10^-3, control 0",0 PFU/m
same,"virus yield, cell","HSV-1 (McKrae strain) [2]; 20 hours P.I., undiluted (Und.), control W.O. (wiped out)",42 PFU/m
same,"virus yield, supernatant","HSV-1 (McKrae strain) [2]; 24 hours P.I., dilution 10^-1, control 107",0 PFU/m
same,"virus yield, cell","HSV-1 (McKrae strain) [2]; 24 hours P.I., dilution 10^-1, control W.O. (wiped out)",32 PFU/m
same,"virus yield, supernatant","HSV-1 (McKrae strain) [2]; 24 hours P.I., dilution 10^-2, control 18",0 PFU/m
same,"virus yield, cell","HSV-1 (McKrae strain) [2]; 24 hours P.I., dilution 10^-2, control W.O. (wiped out)",10 PFU/m
same,"virus yield, supernatant","HSV-1 (McKrae strain) [2]; 24 hours P.I., dilution 10^-3, control 2",0 PFU/m
same,"virus yield, cell","HSV-1 (McKrae strain) [2]; 24 hours P.I., undiluted (Und.), control W.O. (wiped out)",58 PFU/m
same,"virus yield, supernatant","HSV-1 (McKrae strain) [2]; 28 hours P.I., dilution 10^-1, control 190",0 PFU/m
same,"virus yield, cell","HSV-1 (McKrae strain) [2]; 28 hours P.I., dilution 10^-1, control W.O.",TMTC
same,"virus yield, supernatant","HSV-1 (McKrae strain) [2]; 28 hours P.I., dilution 10^-2, control 58",0 PFU/m
same,"virus yield, cell","HSV-1 (McKrae strain) [2]; 28 hours P.I., dilution 10^-2, control W.O. (wiped out)",15 PFU/m
same,"virus yield, supernatant","HSV-1 (McKrae strain) [2]; 28 hours P.I., dilution 10^-3, control 7",0 PFU/m
same,"virus yield, cell","HSV-1 (McKrae strain) [2]; 28 hours P.I., undiluted (Und.), control W.O.",W.O.
same,sciatic pain,"HSV type 2; Patient A, 2.8 cc (100 mg/cc), first infusion, immediately after",cessation of sciatic pain
same,pain or lesions,"HSV type 2; Patient A, about five weeks after third infusion 3.4 cc",no further pain or lesions
same,time without lesions or pain,"HSV type 2; Patient A, after first infusion",52 to 53 days
same,time until spots were gone,"HSV type 2; Patient A, after third infusion",24 h
same,symptoms,"HSV type 2; Patient A, approximately three weeks after first infusion",asymptomatic
same,lesions or pain at last contact,"HSV type 2; Patient A, eighteen months after the initial exam",no further lesions or pain
same,time to disappearance of vesicles,"HSV type 2; Patient A, recurrence after first infusion",two to three
same,sciatic nerve pain,"HSV type 2; Patient A, second infusion 3.2 cc",sciatic nerve pain disappeared during the infusion
same,clearance,"HSV type 2; Patient E, a week after second infusion, 2 pinpoint lesions remaining",99%
same,new pinpoint lesions,"HSV type 2; Patient E, after third infusion",5-6 pinpoint lesions
same,lesions,"HSV type 2; Patient E, third infusion 5 cc, 5 days later",all lesions had cleared up
same,general condition,"HSV type 2; Patient F, about 3 weeks after third infusion",completely cleared up
same,lesion,"HSV type 2; Patient F, first infusion 3.8 cc, next day",improved
same,time to clearing of lesion,"HSV type 2; Patient F, second infusion 4.5 cc",48 h
same,time to clearing of lesions,"HSV type 2; Patient F, third infusion 4.0 cc",≤ 4 days
same,time until lesions were gone,"HSV type 2; Patient G, first infusion 4.3 cc",≤ 48 h
same,long term outcome,"HSV type 2; Patient J, 12 months later, ointment",the problem has resolved itself completely
same,severity of subsequent attacks,"HSV type 2; Patient K, after second infusion",milder severity
same,anticipated massive attack,"HSV type 2; Patient K, second infusion 3.4 cc, six weeks later",the attack had not occurred
same,rate of growth vs cultures without TEAC,[3],no difference in the rate of growth
same,crusting,"HSV type 1; Patient L, 2.9 cc (5.5 mg/kg), 7th day after treatment",the crusting had all disappeared
same,time to clearing of lesions,"HSV type 1; Patient M, 1% TEAC in hydrophillic ointment base, topical, five days later",cleared in a shorter time period than usual
same,lesion,"HSV type 1; Patient M, ointment resumed two months later, after three days",the lesion had not spread and had now crusted
same,change in the morphology of the cells,"Vero and WISH cells; 5 mg, 2.5 mg and 1.25 mg TEAC per culture, overnight",No change in the morphology of the cells
same,growth or general appearance vs untreated controls,"Vero and WISH cells; after wash, additional 24 hours in fresh medium",no apparent difference in the growth or general appearance
same,toxicity,[4],toxicity
same,toxicity,RK-13 cells,toxicity
same,toxicity,Vero cells,slight toxicity
same,drug related effects,"Patient A, 2.8 cc infusion",some blurred vision and slight dizziness on rising to the seated position
same,drug related effects,"Patient A, 3.2 cc infusion",some blurred vision
same,drug related effects,"Patient B, 3.7 cc (5 mg/kg) infusion","blurred vision, dryness of the mouth, and unsteady gait"
same,time to cessation of drug related effects,"Patient B, after cessation of infusion",10 to 15 min
same,drug related effects,"Patient C, 3.85 cc (5 mg/kg)",slightly blurred vision
same,drug related effects,"Patient D, 2.8 cc (5 mg/kg)",dry mouth and transient blurred vision
same,drug related effects,"Patient E, 4.8 cc (5 mg/kg)",slightly blurred vision
same,drug related effects,"Patient J, 3.6 cc (5.5 mg/kg)",some blurred vision
same,drug related effects,"Patient K, 3.1 cc and 3.4 cc",some blurred vision
same,drug related effects,"Patient L, 2.9 cc (5.5 mg/kg)",some blurred vision
same,time patient felt badly following treatment,"Patient L, 2.9 cc (5.5 mg/kg)",24 to 36 h
same,PFU/ml,HSV-1; removed 4 hours P.I.,1042 PFU/ml
same,PFU/ml,HSV-1; removed 6 hours P.I.,596 PFU/ml
same,PFU/ml,HSV-1; removed 8 hours P.I.,436 PFU/ml
same,PFU/ml,HSV-1; removed 10 hours P.I.,163 PFU/ml
same,attacks,"[5]; Patient B, about a month after report on fourth infusion",no more attacks
same,recurrences,"[5]; Patient B, after third infusion",recurrences were not eliminated
same,resolution of oral lesions,"[5]; Patient B, first infusion 3.7 cc (5 mg/kg)",resolution occurring in a shorter than usual time
same,value of last treatment,"[5]; Patient B, fourth infusion 4.8 cc",of no value
same,aura and expected labial lesion,"[5]; Patient B, second infusion 3.7 cc, following day",absence of an aura and no occurrence of the expected lesion except for a very small lesion at the corner of the mouth
same,time to disappearance of penile lesion,"[5]; Patient B, third infusion 4.5 cc",2 to 3 days
same,long term outcome,"[5]; Patient C, five months and ten months after initial treatment",no further problems
same,infection,"[5]; Patient I, first infusion 4.7 cc, four to five days later",they were all clear
same,time to clearing of lesion,"[5]; Patient I, second infusion 4.75 cc (5.5 mg/kg)",3 days
same,nocturnal headaches,"[5]; Patient I, three months after second infusion",no further nocturnal headaches

# From US4902720A (priority 1988, dated 1990)
